This is an account of results in publication PMC7356104, “Oral Administration of Artemisone for the Treatment of Schistosomiasis: Formulation Challenges and In Vivo Efficacy” (Pharmaceutics, 2020).

Converted amounts (≈) assume the structure as drawn. Read-outs that look alike come from different tables or passages of the source.

For data set [1], the system named is S. mansoni. To be noted: cited from earlier work.
Data set [2] in a line: Solubility of artemisone in organic solvents, excipients and SMEDDS (HPLC). To be noted: thermodynamic from solid. It is filed as physicochemical. As to the method: The solubility of artemisone in organic solvents and lipid excipients was determined according to the following procedure: 200 mg artemisone/1.0 mL excipient were placed on an orbital mixing heating plate (Torrey Pines Scientific, Carlsbad, CA, USA) at 25 °C for 24 h under light exclusion. Samples were centrifuged and the supernatant filtered and diluted with ethanol as necessary before HPLC analysis. Samples were prepared in triplicates.
(§1) Artemisone was quantified with high-performance liquid chromatography (HPLC) (Agilent/HP 1100 HPLC series, high-pressure pump, degasser, UV-VIS detector and autosampler, now Agilent Technologies, Inc., Santa Clara, CA, USA), using a method we developed and validated according to the ICH guidelines, over a range of 10–500 µg artemisone/mL (Table 1).

The conditions of data set [3]: H2O; cited from earlier work.
Data set [4] relates to P. falciparum NF54 parasites. Nature of the data set: In vitro efficacy on P. falciparum in culture. It is filed as cell-based, Plasmodium falciparum. To be noted: 48 h. As to the method: P. falciparum NF54 parasites were cultivated at 4% hematocrit in RPMI 1640 medium, 0.5% Albumax II (Invitrogen, Carlsbad, CA, USA), 0.25% sodium bicarbonate, and 0.1 mg/mL gentamicin. 200 µL of parasite suspension at 1% parasitemia were incubated in a Nunc microplate, in 96 flat-bottom wells, at 37 °C, in an atmosphere of 5% oxygen, 5% carbon dioxide and 90% nitrogen. Drug dilutions were added in triplicates in 25 µL. After 48 h P. falciparum parasitaemias were estimated by microscopic determination of the percent of parasitized erythrocytes in a total of 5000 erythrocytes, using Giemsa stained blood smears that were prepared from triplicate individual wells.

A short description of data set [5]: Storage stability of artemisone in SMEDDS and PBS at 30 °C (HPLC). It is filed as physicochemical. As to conditions: 80 µg/mL in PBS pH 6.5, 30 °C, light exclusion. How it is done: as §1
Artemisone (50 mg/g) was dissolved in SMEDDS-100. For SMEDDS-50-ART and SMEDDS-20-ART, PBS was added to the drug-loaded formulation to give the microemulsions, containing 25 mg/g and 10 mg/g artemisone, respectively. A solution of 80 µg/mL artemisone in PBS pH 6.5 Ph.Eur. was prepared and used as control, the pH found for SMEDDS-50 and SMEDDS-20 also being around 6.5. Triplicates of all three preparations were stored in glass vials with Teflon sealed lids at 30 °C under light exclusion. Samples were taken after 14, 28, 42, 56, and 92 days and analyzed via HPLC to monitor drug stability.

On the set-up of data set [6]: method as in PMID 21596127. To be noted: oral Pheroid technology formulation, mice; cited from earlier work.
Details of data set [7]: method as in earlier work. To be noted: cited from earlier work.
[8] abbreviates: similar procedure (single oral dose).

`CO[C@H]1O[C@@H]2O[C@@]3(C)CC[C@H]4[C@H](C)CC[C@@H]([C@H]1C)[C@@]24OO3` [artemether]: in data set [1] (setting [8]), the “reduction of worm load” value is “more than 90%”.

In the case of `C[C@H]1[C@H](N2CCSCC2)O[C@@H]2O[C@@]3(C)CC[C@H]4[C@H](C)CC[C@@H]1[C@@]24OO3` [artemiside], the “reduction of worm load” value in data set [1] (setting [8]) is given as “more than 90%”.

Regarding `C[C@H]1[C@H](N2CCS(=O)(=O)CC2)O[C@@H]2O[C@@]3(C)CC[C@H]4[C@H](C)CC[C@@H]1[C@@]24OO3` [artemisone, 4-[(1R,4S,5R,8S,9R,10R,12R,13R)-1,5,9-trimethyl-11,14,15,16-tetraoxatetracyclo-hexadecan-10-yl]-1,4-thiazinane1,1-dioxide], the solubility at 24 h in data set [2] (oil or lipid, in Polysorb ID 46, 25 °C) was 55 mg/mL (≈ 137 mM); in data set [2] (oil or lipid, in medium chain mono- and diglycerides (Capmul MCM), 25 °C), 62.5 mg/mL (≈ 156 mM); in data set [2] (oil or lipid, in medium chain triglycerides (MCT), 25 °C), 22.5 mg/mL (≈ 56 mM); in data set [2] (organic solvent or mixture, in DMF, 25 °C), > 100 mg/mL; in data set [2] (organic solvent or mixture, in DMSO, 25 °C), > 100 mg/mL; in data set [2] (organic solvent or mixture, in acetone, 25 °C), > 100 mg/mL. The solubility at 24 h was > 100 mg/mL in data set [2] (organic solvent or mixture, in dichloromethane, 25 °C); 30 mg/mL (≈ 74.7 mM) in data set [2] (organic solvent or mixture, in ethanol, 25 °C); 0.8 mg/mL (≈ 1.99 mM) in data set [2] (organic solvent or mixture, in hexane, 25 °C); 50 mg/mL (≈ 125 mM) in data set [2] (organic solvent or mixture, in methanol, 25 °C); 8.5 mg/mL (≈ 21.2 mM) in data set [2] (organic solvent or mixture, in propylene glycol, 25 °C). Besides, in data set [3], the aqueous solubility was 0.089 mg/mL (≈ 0.222 mM). Further, the “concentration at which parasitaemia was completely blocked” value in data set [4] is on record as “below 11 ng/mL”. In data set [4] (parasitaemia by Giemsa smears), this molecule had an ED50 of 1 to 2 ng/mL. Further, the “artemisone recovered after three months” value in data set [5] turned out to be 51.5 ± 0.4%. The “higher absorption of artemisone compared to an aqueous vehicle containing 10% DMSO” value in data set [6] is given as 5.57 fold. Moreover, the “degradation in aqueous medium” value in data set [7] (pH 3) was “complete degradation was observed within one week”. The “intact compound remained after one month” value in data set [7] (pH 5) is recorded as 20%; in data set [7] (pH 7.4), 75%. Also, the “reduction of worm load” value in data set [1] (setting [8]) is on record as “more than 90%”.

Take `C[C@H]1[C@H](OC(=O)CCC(=O)O)O[C@@H]2O[C@@]3(C)CC[C@H]4[C@H](C)CC[C@@H]1[C@@]24OO3` [artesunate]: in data set [1] (single oral dose 400 mg/kg in 3% ethanol and 7% Tween 80, 21 days post-infection), the “reduction of worm load” value is 66%.

In general, solubility refers to the concentration that dissolves in the medium under given conditions. Usually aqueous solubility stands for the concentration that dissolves in the medium under given conditions.
